The nature of the data set: Malvern laser diffraction particle sizing. The data set is classed as physicochemical. The conditions noted are these: Malvern Mastersizer X; dispersant iso octane/lecithin 0.05% w/w; sonicated 3 minutes; one analysis per sample. On the procedure: Particles of Examples 1A and 1B were analysed using Malvern laser diffraction particle sizing. Instrument: Malvern Mastersizer X Lens: 45 mm Reverse Fourier Analysis: 0607 presentation code Dispersant: Iso Octane/Lecithin 0.05% w/w Pre dispersion: Sonicate for 3 minutes Obscuration: 10% to 16% One analysis per sample was carried out. The median particle size (D50), particle size at 90% undersize (D90) and particle size at 10% undersize (D10) were used as responses to characterise the medium, course, and fine particles.

SMILES strings stand for the structures.

For the compound `CCC(=O)O[C@]1(C(=O)SCF)[C@H](C)C[C@H]2[C@@H]3C[C@H](F)C4=CC(=O)C=C[C@]4(C)[C@@]3(F)[C@@H](O)C[C@@]21C` [Example 1B, fluticasone propionate], the “D10 (particle size at 10% undersize)” value amounted to 1.77 μm, the “D50 (median particle size)” value turned out to be 3.65 μm and the “D90 (particle size at 90% undersize)” value is 7.24 μm.
With `CCC(=O)O[C@]1(C(=O)SCF)[C@H](C)C[C@H]2[C@@H]3C[C@H](F)C4=CC(=O)C=C[C@]4(C)[C@@]3(F)[C@@H](O)C[C@@]21C` [Example 1A, fluticasone propionate], the “D10 (particle size at 10% undersize)” value was determined as 1.01 μm, the “D50 (median particle size)” value turned out to be 2.68 μm and the “D90 (particle size at 90% undersize)” value came out at 5.93 μm.

For the origin of these results see patent publication US20040045805A1, “Novel process for preparing and harvesting crystalline particles” (priority 2000, published 2004).
